Measured values: ChEMBL document CHEMBL1201862, “PubChem BioAssay data set” (2004)
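Each compound was tested at five concentrations against cells in 96-well plates for 48 hours. GI50: concentration for 50% inhibition of growth.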 Calls of active or inactive are those of the source. No stated cut-off is given here; in the data, active = GI50 up to about 1.1 µM and inactive = higher.

How the values were obtained:
Experiment in all cases: growth of human tumour cells (NCI), 48 h
[1] = system: ACHN
[2] = system: CAKI-1
[3] = system: DMS-273
[4] = system: EKVX
[5] = system: HCT-116
[6] = system: HOP-62
[7] = system: HOP-92
[8] = system: KM12
[9] = system: LOX IMVI
[10] = system: M14
[11] = system: NCI-H226
[12] = system: NCI-H23
[13] = system: NCI-H522
[14] = system: OVCAR-5
[15] = system: SNB-19
[16] = system: UACC-62

Row | SMILES | GI50 [1] | GI50 [2] | GI50 [3] | GI50 [4] | GI50 [5] | GI50 [6] | GI50 [7] | GI50 [8] | GI50 [9] | GI50 [10] | GI50 [11] | GI50 [12] | GI50 [13] | GI50 [14] | GI50 [15] | GI50 [16]
1 | CCOC(=O)N[C@H]1CCc2cc(O)c(OC)c(OC)c2-c2ccc(SC)c(=O)cc21 | 0.069 µM (active) | 0.0266 µM (active) | 0.0149 µM (active) | 0.483 µM (active) | < 0.0138 µM (active) | 0.0386 µM (active) | 0.0103 µM (active) | 0.0154 µM (active) | 0.0234 µM (active) | < 0.01 µM (active) | 0.266 µM (active) | 0.0157 µM (active) | 0.0177 µM (active) | 0.614 µM (active) | 0.0282 µM (active) | < 0.0144 µM (active)
2 | CN1CCN(CCSC2Cc3cc(Cl)ccc3Sc3ccccc32)CC1 (stereo not given) | 8.36 µM (inactive) | 6.67 µM (inactive) | 2.1 µM (inactive) | 15.1 µM (inactive) | 5.69 µM (inactive) | 12.7 µM (inactive) | 4.5 µM (inactive) | 3.46 µM (inactive) | 2.28 µM (inactive) | 1.91 µM (inactive) | 16.9 µM (inactive) | 7.89 µM (inactive) | 5.93 µM (inactive) | 5.37 µM (inactive) | 13.9 µM (inactive) | 1.91 µM (inactive)
3 | CCCCOC(=O)NC(=O)c1cn(CCSCCOC(=O)NCCCCCCNC(=O)OCCSCCn2cc(C(=O)NC(=O)OCCCC)c(=O)[nH]c2=O)c(=O)[nH]c1=O | > 100 µM (inactive) |  | 95.5 µM (inactive) | 91.4 µM (inactive) | 73.8 µM (inactive) | 44.6 µM (inactive) | 21.5 µM (inactive) | > 100 µM (inactive) | > 100 µM (inactive) | 58.9 µM (inactive) |  | 27.4 µM (inactive) | 32.6 µM (inactive) | > 100 µM (inactive) | 26.6 µM (inactive) | 41.5 µM (inactive)
4 | FC(F)(F)c1ccccc1C1SCc2nc3ccccc3n21 (stereo not given) | 40.6 µM (inactive) | 32.6 µM (inactive) | 38 µM (inactive) | 41.1 µM (inactive) | 39.1 µM (inactive) |  | 4.67 µM (inactive) | 70.8 µM (inactive) |  |  | 39.4 µM (inactive) | 34 µM (inactive) | 18.3 µM (inactive) | 28.8 µM (inactive) | > 100 µM (inactive) | 22.5 µM (inactive)
5 | COC(=O)[C@@]12CC(C(C)C)[C@H]3CC(C(=O)C=C1OC)[C@H]32 (stereo not given in full) | > 100 µM (inactive) | > 100 µM (inactive) | > 100 µM (inactive) | > 100 µM (inactive) | > 100 µM (inactive) | > 100 µM (inactive) | > 100 µM (inactive) | > 100 µM (inactive) |  | > 100 µM (inactive) |  | > 100 µM (inactive) |  | > 100 µM (inactive) | > 100 µM (inactive) | > 100 µM (inactive)
6 | Cc1ccc(-c2c(N)nc(NC#N)nc2CCC(=O)Nc2ccccc2[N+](=O)[O-])cc1 | > 100 µM (inactive) | > 100 µM (inactive) | > 100 µM (inactive) | > 100 µM (inactive) | > 100 µM (inactive) | > 100 µM (inactive) | > 100 µM (inactive) | > 100 µM (inactive) | > 100 µM (inactive) | > 100 µM (inactive) | > 100 µM (inactive) | > 100 µM (inactive) | 85.1 µM (inactive) | > 100 µM (inactive) | > 100 µM (inactive) | > 100 µM (inactive)
7 | NC(=O)c1cc(C2OC(CO)C(O)C2O)nn1-c1ccc([N+](=O)[O-])cc1 (stereo not given) | > 100 µM (inactive) | > 100 µM (inactive) | > 100 µM (inactive) | > 100 µM (inactive) | > 100 µM (inactive) | > 100 µM (inactive) | > 100 µM (inactive) | > 100 µM (inactive) | > 100 µM (inactive) | > 100 µM (inactive) | > 100 µM (inactive) | > 100 µM (inactive) |  | > 100 µM (inactive) | > 100 µM (inactive) | > 100 µM (inactive)
8 | N=CCCN(CCC=N)c1ccc(/C=C2\CN(NC(=O)c3ccc(Cl)cc3)C(c3ccccc3)=N2)cc1 | > 100 µM (inactive) | > 100 µM (inactive) | > 100 µM (inactive) | > 100 µM (inactive) | > 100 µM (inactive) | > 100 µM (inactive) | > 100 µM (inactive) | > 100 µM (inactive) | 75 µM (inactive) | > 100 µM (inactive) | > 100 µM (inactive) | > 100 µM (inactive) |  | > 100 µM (inactive) | > 100 µM (inactive) | > 100 µM (inactive)
9 | CC(=O)C1=CCC2c3[nH]c4ccccc4c3CCN2C1 (stereo not given) | 78 µM (inactive) |  | 34.5 µM (inactive) | 67.1 µM (inactive) | 45 µM (inactive) | > 100 µM (inactive) | 36.3 µM (inactive) | 52.6 µM (inactive) | 58.7 µM (inactive) | > 100 µM (inactive) | > 100 µM (inactive) | 46.7 µM (inactive) | 24.7 µM (inactive) | > 100 µM (inactive) | > 100 µM (inactive) | 
10 | CCOC(=O)C1C(c2ccccc2)=C(c2ccccc2)C(c2ccccc2)=C1c1ccccc1 | 28.6 µM (inactive) | > 65.3 µM (inactive) | 31.3 µM (inactive) | > 88.3 µM (inactive) | 20.8 µM (inactive) | 12.6 µM (inactive) | 12.4 µM (inactive) | > 100 µM (inactive) | 58.9 µM (inactive) | 57.4 µM (inactive) | > 39.2 µM (inactive) | 34.2 µM (inactive) | 49.8 µM (inactive) | > 100 µM (inactive) | 18.8 µM (inactive) | 19.3 µM (inactive)
11 | CCN1C(=O)C/C(=C\C(C)=O)Nc2ccccc21 |  | > 100 µM (inactive) | > 100 µM (inactive) | > 100 µM (inactive) | > 100 µM (inactive) | > 100 µM (inactive) | > 100 µM (inactive) | > 100 µM (inactive) | > 100 µM (inactive) | > 100 µM (inactive) | > 100 µM (inactive) | > 100 µM (inactive) | > 100 µM (inactive) | > 100 µM (inactive) | > 100 µM (inactive) | > 100 µM (inactive)
12 | O=C(O)CN(c1ccccc1)S(=O)(=O)c1ccc(Cl)cc1 | > 100 µM (inactive) | > 100 µM (inactive) | > 100 µM (inactive) | > 100 µM (inactive) |  |  | > 100 µM (inactive) |  | > 100 µM (inactive) | > 100 µM (inactive) |  | > 100 µM (inactive) | > 100 µM (inactive) | > 100 µM (inactive) | > 100 µM (inactive) | > 100 µM (inactive)
13 | C[C@@H]1O[C@@H](O[C@H]2[C@H](Oc3cc(O)c4c(=O)cc(-c5ccc(O)cc5)oc4c3)O[C@H](CO)[C@@H](O)[C@@H]2O)[C@H](O)[C@H](O)[C@H]1O [RHOIFOLIN] | > 100 µM (inactive) | > 100 µM (inactive) | > 100 µM (inactive) | > 100 µM (inactive) | > 100 µM (inactive) | > 100 µM (inactive) | > 100 µM (inactive) | > 100 µM (inactive) | > 100 µM (inactive) | > 100 µM (inactive) |  | > 100 µM (inactive) | > 100 µM (inactive) | > 100 µM (inactive) | > 100 µM (inactive) | > 100 µM (inactive)
